In data set [1] the test system is development of morphine tolerance in mice treated chronically with morphine. It is filed as in vivo, mice (male Swiss-Webster). The note with it: for increase of the ED50 of morphine sulfate vs control animals: antagonist together with morphine pellets; for effect on development of tolerance: with morphine pellets. The procedure:
(§1) Male Swiss-Webster mice (BioLab, White Bear Lake, Minn.) weighing 20 to 25 g were used. The mice were rendered tolerant to and dependent on morphine by s.c. implantation of one morphine pellet (75 mg free base)/mouse for 3 days according to the procedure of E. L. Way et al., J. Pharmacol. Exp. Ther., 167, 1 (1969). Control animals were implanted with placebo pellets. Mice were anesthetized lightly with methoxyflurane during the implantation process. […] Chem. Pathol. Pharmacol., 16, 721 (1977).
At least 30 mice (10/group) and three to four dose levels were used to determine each ED50 value.
The ED50 values of morphine and their 95% CL were determined by the parallel line assay of D. J. Finney, Statistical Methods in Biological Assay, Hafner Pub. Co., N.Y. (2d ed. 1969) with the aid of a computer program which has the capability to analyze at the same time 12 lines (dose-response curves) and 6 points (dose levels) per line with log and probit transformations and 35 repetitions per point.
(§2) Mice were implanted with a single placebo (control) or morphine pellet (75 mg free base) for 3 days. NTI (10 pmol/mouse) was administered i.c.v. 90 min before and 24 and 48 hr after the morphine pellet implantation. 5'-NTII (10 nmol/mouse) was administered 24 hr before, at the same time as and 24 and 48 hr after the morphine pellet implantation.

The subject of data set [2] is development of physical dependence in mice treated chronically with morphine. Put plainly: Naloxone-induced withdrawal jumping: physical dependence, mice treated chronically with morphine. It is filed as in vivo, mice (male Swiss-Webster). The note with it: with morphine pellet. How it is done:
as §1, §2

Data set [3] has as its target T1, delta opioid receptors (Mus musculus, UniProt P32300).
T1 construct: from tissue; host or cells: living mouse, intracerebroventricular dosing (endogenous receptor)
Put plainly: Antagonism of delta opioid receptor agonists (DSLET) in vivo. More on the design: species or system mice.

The subject of the next data set is mu opioid receptors. Put plainly: Effect on antinociceptive activity of the mu agonist DAMGO. The note with it: NTI 10 pmol/mouse, once or twice; 5'-NTII 10 nmol/mouse 24 hr before DAMGO. It is filed as in vivo, mice (male Swiss-Webster). How it is done: (§3) NTI (10 pmol/mouse) was administered 100 min before the i.c.v. injection of DAMGO and 20 min later, at the peak effect of DAMGO, the antinociceptive activity of the peptide was assessed. In another group of mice, NTI (10 pmol/mouse) was administered twice, once at 100 min before and again at the same time as the i.c.v. injection of DAMGO. 5'-NTII (10 nmol/mouse) was administered 24 hr before being tested with DAMGO.

The subject of data set [4] is mu opioid receptor. Put plainly: Antagonism of mu opioid receptor agonists. It is filed as in vivo. The note with it: 10 nmol/mouse i.c.v., 24 hours. The procedure:
as §3

Data set [5] deals with kappa opioid receptor. Put plainly: Antagonism of kappa opioid receptor agonists. The conditions noted are these: 10 nmol/mouse i.c.v., 24 hours. Format: in vivo.
The subject of the next data set is antinociceptive activity. Put plainly: Antinociceptive activity of the antagonist itself. Format: in vivo, mice. The conditions noted are these: for antinociceptive activity: mouse, in vivo.
Data set [6] deals with T1, delta opioid receptors. The note with it: previously reported; cited from earlier work.
Data set [7] deals with mu opioid receptor. The note with it: shown previously; cited from earlier work.
The subject of data set [8] is kappa opioid receptor. The note with it: shown previously; cited from earlier work.
In data set [9] the test system is delta opioid receptors. The note with it: shown previously; cited from earlier work.
Data set [10] relates to mu opioid receptor. The conditions noted are these: rats; cited from earlier work.
Data set [11] deals with mu opioid receptor. The conditions noted are these: monkeys; cited from earlier work.
For data set [12], the system named is mu opioid receptor. The conditions noted are these: dose used by DeLander et al.; cited from earlier work.
Data set [13] deals with development of morphine tolerance in mice treated acutely with morphine. Format: in vivo, mice (male Swiss-Webster). The note with it: NTI 10 pmol/mouse i.c.v.; morphine sulfate 100 mg/kg s.c.
In data set [14] the test system is development of physical dependence in mice treated acutely with morphine. Format: in vivo, mice (male Swiss-Webster).
The subject of a further data set is delta opioid receptor. Put plainly: Delta antagonist potency/selectivity comparison (one assay).

These results are taken from patent US5352680A, “Delta opioid receptor antagonists to block opioid agonist tolerance and dependence” (priority 1992, dated 1994).

Like-named read-outs stand apart in the source and are kept apart here.

T1 sequence (P32300 whole entry): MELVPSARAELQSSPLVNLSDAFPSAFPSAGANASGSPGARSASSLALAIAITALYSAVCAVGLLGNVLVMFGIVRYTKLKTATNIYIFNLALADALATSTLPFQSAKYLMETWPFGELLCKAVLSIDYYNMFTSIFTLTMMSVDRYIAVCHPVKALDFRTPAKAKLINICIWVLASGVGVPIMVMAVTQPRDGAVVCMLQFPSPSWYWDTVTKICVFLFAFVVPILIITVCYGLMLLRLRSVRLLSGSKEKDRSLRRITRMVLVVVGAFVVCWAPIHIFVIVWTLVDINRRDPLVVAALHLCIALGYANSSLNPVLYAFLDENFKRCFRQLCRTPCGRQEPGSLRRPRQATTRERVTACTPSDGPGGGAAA

Consider `Oc1ccc2c3c1O[C@H]1c4[nH]c5ccc(N=C=S)cc5c4C[C@@]4(O)[C@@H](C2)N(CC2CC2)CC[C@]314` [5'-NTII, naltrindole 5'-isothiocyanate], for which, in data set [1], the “increase of the ED50 of morphine sulfate vs control animals” value is on record as 3 fold and the “effect on development of tolerance” value is recorded as “the development of tolerance was suppressed substantially”. Further, the “effect on development of physical dependence” value in data set [2] was “appeared to block it completely”. Further, the “selectivity for delta opioid receptors” value on delta opioid receptors [3] (10 nmol/mouse i.c.v.) was “high selectivity for delta opioid receptors”. The “increase of ED50 of DSLET” value at delta opioid receptors [3] (24 hours after 10 nmol/mouse i.c.v.) was found to be 50 fold. The “effect on the antinociceptive activity of DAMGO” value with mu opioid receptors is “neither NTI nor 5'-NTII, at the dosages and injection protocol used, altered the anti-nociceptive activity of DAMGO”. Further, in the data set on mu opioid receptor [4], the “effect on ED50s of mu opioid receptor agonists” value is “without affecting the ED50 s of mu or kappa opioid receptor agonists”. Besides, in the data set with kappa opioid receptor [5], the “effect on ED50s of kappa opioid receptor agonists” value is listed as “without affecting the ED50 s of mu or kappa opioid receptor agonists”. Besides, the antinociceptive activity result with antinociceptive activity is listed as “without any antinociceptive activity”. Also, at delta opioid receptors [6], the “duration of action against delta agonists” value is “more than 48 hr”. Further, the “effect on activity of mu opioid receptor agonists” value with mu opioid receptor [7] was “minimal or no effect”. Further, the “effect on activity of kappa opioid receptor agonists” value with kappa opioid receptor [8] is given as “minimal or no effect”. Moreover, the “antagonism of delta opioid receptor agonists” value in the data set with delta opioid receptors [9] is “highly effective antagonists against the activity of delta opioid receptor agonists”.
For `COC(=O)/C=C/C(=O)N[C@@H]1CC[C@@]2(O)[C@H]3Cc4ccc(O)c5c4[C@@]2(CCN3CC2CC2)[C@H]1O5` [β-FNA, β-funaltrexamine], in the data set on mu opioid receptor [10], the “effect on development of morphine tolerance and dependence” value was “inhibit the development of morphine tolerance and dependence in rats”. Also, in the data set on mu opioid receptor [11], the withdrawal signs result is “induce long-lasting withdrawal signs in monkeys”. Further, the “effect on morphine-induced antinociception” value with mu opioid receptor [12] was “significantly inhibited morphine-induced antinociception”.
As for `Oc1ccc2c3c1O[C@H]1c4[nH]c5ccccc5c4C[C@@]4(O)[C@@H](C2)N(CC2CC2)CC[C@]314` [NTI, 17-(cyclopropylmethyl)-6,7-dehydro-3,14β-dihydroxy-4,5α-epoxy-6,7-2',3'-indolmorphinan], the “effect on development of acute tolerance” value in [13] is recorded as “completely prevented the development of acute tolerance”. Further, the “times more naloxone required to precipitate withdrawal jumping” value in data set [14] (pretreated twice with NTI before inducing dependence) was determined as 45 times. Moreover, in [14] (single dose of NTI 90 min before or at same time as 100 mg/kg morphine sulfate), the “times more naloxone required to precipitate withdrawal jumping” value is recorded as “about 10 times”. In addition, in data set [1], the “increase of the ED50 of morphine sulfate vs control animals” value was found to be 2 fold and the “effect on development of tolerance” value is recorded as “the development of tolerance was suppressed substantially”. In data set [2], the “effect on development of physical dependence” value was “suppressed the development of dependence substantially”. Further, the “duration of antagonist activity against delta opioid receptor agonists” value on delta opioid receptors [3] (NTI, b221: against the antinociceptive effect of DSLET) is 18 to 24 h. Besides, the “effect on the antinociceptive activity of DAMGO” value in the data set with mu opioid receptors was “neither NTI nor 5'-NTII, at the dosages and injection protocol used, altered the anti-nociceptive activity of DAMGO”. Moreover, in the data set on antinociceptive activity (i.c.v.), the “maximum dose with selective antagonism at delta opioid receptors without detection of antinociceptive activity” value was determined as 10 pmol/mouse. Further, the antinociceptive activity result in the data set with antinociceptive activity is “possesses antinociceptive activity”. The “potency relative to ICI 174864” value in the data set on delta opioid receptor (vs peptide delta antagonist ICI 174864) is listed as “at least 500 times”. Moreover, the “selectivity relative to M8008” value in the data set with delta opioid receptor (vs structurally unrelated opiate M8008) is on record as “more selective than the structurally unrelated opiate M8008”. Moreover, in the data set on mu opioid receptor [7], the “effect on activity of mu opioid receptor agonists” value is recorded as “minimal or no effect”. In addition, in the data set with kappa opioid receptor [8], the “effect on activity of kappa opioid receptor agonists” value was “minimal or no effect”. Also, the “antagonism of delta opioid receptor agonists” value in the data set with delta opioid receptors [9] is “highly effective antagonists against the activity of delta opioid receptor agonists”.
